# Measurements as given in patent US5405845A, “(Pyrrolidinyl)phenyl carbamate derivatives and use” (priority 1994, dated 1995).
# Columns and labels:
# acetylcholinesterase [1] = experiment: ex vivo inhibition acetylcholinesterase assay (modified Ellman); assay type: in vivo, male Wistar rats
# acetylcholinesterase [2] = molecular target: T1, acetylcholinesterase (Rattus norvegicus, UniProt P37136); experiment: in vitro inhibition of acetylcholinesterase assay (modified Ellman); assay type: biochemical, Male Wistar rat (corpora striata homogenate)
# T1 construct: corpora striata dissected free, weighed and homogenized in 19 volumes; from tissue; host or cells: corpora striata of male Wistar rats, crude homogenate
# T1 sequence (P37136 32-614): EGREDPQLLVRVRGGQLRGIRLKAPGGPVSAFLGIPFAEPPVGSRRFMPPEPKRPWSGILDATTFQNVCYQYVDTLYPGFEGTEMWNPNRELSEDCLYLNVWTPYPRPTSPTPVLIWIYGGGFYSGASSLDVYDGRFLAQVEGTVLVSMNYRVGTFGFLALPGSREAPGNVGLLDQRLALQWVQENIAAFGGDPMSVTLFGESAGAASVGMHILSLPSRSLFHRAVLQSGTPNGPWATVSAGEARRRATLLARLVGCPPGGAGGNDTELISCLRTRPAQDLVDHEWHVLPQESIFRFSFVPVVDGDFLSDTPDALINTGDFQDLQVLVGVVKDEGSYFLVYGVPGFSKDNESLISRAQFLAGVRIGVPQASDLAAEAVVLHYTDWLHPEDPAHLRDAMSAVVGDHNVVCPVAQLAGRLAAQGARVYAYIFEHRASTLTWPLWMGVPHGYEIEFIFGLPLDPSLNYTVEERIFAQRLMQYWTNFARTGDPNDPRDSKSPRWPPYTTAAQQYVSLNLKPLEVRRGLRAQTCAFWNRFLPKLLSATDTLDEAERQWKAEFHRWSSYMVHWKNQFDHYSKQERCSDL
# Protocol: In this assay, a modification of a test described by G. L. Ellman, et al., Biochemical Pharmacology, 7, 88 (1961), the following reagents are prepared and employed:
# 1.0.05M Phosphate Buffer (pH 7.2)
# A solution of monobasic sodium phosphate monohydrate (6.85 g) in distilled water (100 ml) is added to a solution of dibasic sodium phosphate heptahydrate (13.4 g) and distilled water (100 ml) until a pH of 7.2 was attained. The solution was diluted 1 to 10 with distilled water.
# The 0.05M Phosphate Buffer (pH 7.2) was added to acetylthiocholine (198 mg) to a total volume of 100 ml, i.e., a quantity sufficient (gs) to 100 ml.
# 3. 5,5-Dithiobisnitrobenzoic acid in Buffer
# The 0.05M Phosphate Buffer (pH 7.2) was added to 5,5-dithiobisnitrobenzoic acid to a total volume of 100 ml, i.e., a quantity sufficient (gs) to 100 ml.
# 4. Stock Solution of Drug
# A 2 millimolar stock solution of the test drug is prepared in a quantity sufficient of either acetic acid or dimethyl sulfoxide to volume with 5,5-Dithiobisnitrobenzoic Acid in Buffer. Stock Solution of Drug is serially diluted (1:10) so that the final cuvette concentration is 10^-4 molar.
# Male Wistar rates are decapitated, brains rapidly removed, corpora striata dissected free, weighed and homogenized in 19 volumes (approximately 7 mg protein/ml) of 0.05M phosphate Buffer (pH 7.2) using a Potter-Elvehjem homogenizer. A 25 μl aliquot of this suspension is added to 1 ml of the vehicle or various concentrations of the test drug and preincubated for 10 minutes at 37° C. Enzyme activity is measured with a Beckman DU-50 spectrophotometer with the following software and instrument settings:
# 1. Kinetics Soft-Pac™ Module #598273;
# 6. Cuvettes--2 ml cuvettes using auto 6-sampler;
# 7. Blank--1 for each substrate concentration;
# 8. Interval time--15 seconds (15 or 30 seconds for kinetics);
# 9. Total time--5 minutes (5 or 10 minutes for kinetics);
# 14 12. Slope--increasing;
# 13. Results--yes (gives slope); and
# Reagents are added to the blank and sample cuvettes as follows:
# 1. Blank: 0.8 ml 5,5-Dithiobisnitrobenzoic Acid 0.8 ml Substrate in Buffer
# 2. Control: 0.8 ml 5,5-Dithiobisnitrobenzoic Acid/Enzyme 0.8 ml Substrate in Buffer
# 3. Drug: 0.8 ml 5,5-Dithiobisnitrobenzoic Acid/Drug/Enzyme 0.8 ml Substrate in Buffer
# Blank values are determined for each run to control for non-enzymatic hydrolysis of substrate and these values are automatically subtracted by the Kindata program available on kinetics soft-pac module. This program also calculates the rate of absorbance change for each cuvette.
# Substrate concentration is 10 millimolar diluted 1:2 in assay yielding final concentration of 5 millimolar. 5,5-Dithiobisnitrobenzoic acid concentration is 0.5 millimolar yielding 0.25 millimolar final concentration. [formula]
# IC50 values are calculated from log-probit analysis
Structure (SMILES),IC50 (acetylcholinesterase [2]),also measured
CNC(=O)Oc1cccc(C2CCCN2CCc2ccccc2)c1 (stereo not shown) [3-[1-(2-Phenylethyl)-2-pyrrolidinyl]phenyl methylcarbamate],–,"Inhibition of Acetylcholinesterase Activity Percent Inhibition @ 1 hr (acetylcholinesterase [1]; 10 mg/kg per os, forebrain): 25%"
CNC(=O)Oc1cccc(C2CCCN2Cc2cccnc2)c1 (stereo not shown) [3-[1-(3-Pyridinylmethyl)-2-pyrrolidinyl]phenyl methylcarbamate],–,"Inhibition of Acetylcholinesterase Activity Percent Inhibition @ 1 hr (acetylcholinesterase [1]; 10 mg/kg per os, forebrain): 51%"
"O=C(Oc1cccc(C2CCCN2Cc2ccncc2)c1)N1CCc2ccccc2C1 (stereo not shown) [3-[1-(4-Pyridinylmethyl)-2-pyrrolidinyl]phenyl 3,4-dihydro-2(1H)-isoquinoline carbamate hemifumarate]",568 nM,–
CNC(=O)Oc1cccc(C2CCCN2Cc2ccncc2)c1 (stereo not shown) [3-[1-(4-Pyridinylmethyl)-2-pyrrolidinyl]phenyl methylcarbamate],24.4 nM,"Inhibition of Acetylcholinesterase Activity Percent Inhibition @ 1 hr (acetylcholinesterase [1]; 10 mg/kg per os, striatum): 80%"
CNC(=O)Oc1cccc(C2CCC(=O)N2Cc2ccncc2)c1 (stereo not shown) [3-[1-((4-Pyridinyl)methyl)-5-oxo-2-pyrrolidinyl]phenyl methylcarbamate hemifumarate],1440 nM,–
CCN1CCCC1c1cccc(OC(=O)NC)c1 (stereo not shown) [3-[1-Ethyl-2-pyrrolidinyl]phenyl methylcarbamate],–,"Inhibition of Acetylcholinesterase Activity Percent Inhibition @ 1 hr (acetylcholinesterase [1]; 1 mg/kg per os, forebrain): 73%"
CNC(=O)Oc1cccc(C2CCCN2CCN2CCOCC2)c1 (stereo not shown) [3-{1-[2-(4-Morpholinyl)ethyl]-2-pyrrolidinyl}phenyl methylcarbamate bis-fumarate],529 nM,–
CNC(=O)Oc1cccc(C2CCC(=O)N2CCN2CCOCC2)c1 (stereo not shown) [3-{1-[2-(4-Morpholinyl)ethyl]-5-oxo-2-pyrrolidinyl}phenyl methylcarbamate],18700 nM,–
"CNC(=O)Oc1ccc2c(c1)[C@]1(C)CCN(C)[C@@H]1N2C [physostigmine, reference compound]",–,"Inhibition of Acetylcholinesterase Activity Percent Inhibition @ 1 hr (acetylcholinesterase [1]; 0.3 mg/kg intraperitoneal, forebrain): 27%"
